Data taken from patent US9828588B2, “Methods and compositions for producing active vitamin K-dependent proteins” (The University of North Carolina at Chapel Hill, priority 2005, dated 2017).

Test system: P450 2C9
Assay: Average warfarin maintenance dose in patients by P450 2C9 genotype
Type: in vivo, human
Conditions: patients heterozygous for P450 2C9*3, n=8
Source text: Subjects were obtained from the UNC Coagulation Clinic in the Ambulatory Care Center. Informed consent was obtained by a trained genetic counselor. Subjects not fluent in English were excluded because of the lack of translators and the requirement for consent.
The difference of average dose between different genotypes was compared by analysis of variance (ANOVA) using SAS version 8.0 (SAS, Inc., Cary, N.C.). A two-sided p value less than 0.05 was considered significant.
Each marker was first analyzed independently.
SAS was used first to do a repeated procedure in which a series of factors (race, gender, smoking history, hepatic diseases, SNPs at cytochrome […] gene, etc.) were examined to identify factors, excluding VKOR SNPs, which might affect dosage.

CC(=O)CC(c1ccccc1)c1c(O)c2ccccc2oc1=O (stereo not shown) [warfarin]
average warfarin dose: 22.4±4.34 mg per week
